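Abbreviation: GI50, concentration required for 50% inhibition of growth. TGI: total growth inhibition.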
Tests used:
Assay in all cases: inhibition of tumour cell growth, NCI panel, 384-well format
OVCAR-5 ovarian = test system: OVCAR-5 ovarian
MCF7 breast = test system: MCF7 breast
SF-539 CNS = test system: SF-539 CNS
NCI-H226 lung = test system: NCI-H226 lung
UACC-257 melanoma = test system: UACC-257 melanoma
HS 578T breast = test system: HS 578T breast
IGROV1 ovarian = test system: IGROV1 ovarian
HL-60(TB) leukemia = test system: HL-60(TB) leukemia
OVCAR-3 ovarian = test system: OVCAR-3 ovarian
MALME-3M melanoma = test system: MALME-3M melanoma
A549 NSCLC = test system: A549 NSCLC
MDA-MB-435 melanoma = test system: MDA-MB-435 melanoma
HCC-2998 colon = test system: HCC-2998 colon
NCI/ADR-RES ovarian = test system: NCI/ADR-RES ovarian
SK-OV-3 ovarian = test system: SK-OV-3 ovarian
SW-620 colon = test system: SW-620 colon
SNB-75 CNS = test system: SNB-75 CNS
NCI-H322M lung = test system: NCI-H322M lung
DU-145 prostate = test system: DU-145 prostate
T-47D breast = test system: T-47D breast
LOX IMVI melanoma = test system: LOX IMVI melanoma
COLO 205 colon = test system: COLO 205 colon
SNB-19 CNS = test system: SNB-19 CNS
HCT-15 colon = test system: HCT-15 colon
SF-268 CNS = test system: SF-268 CNS
SK-MEL-28 melanoma = test system: SK-MEL-28 melanoma
NCI-H23 lung = test system: NCI-H23 lung
CCRF-CEM leukemia = test system: CCRF-CEM leukemia
MDA-MB-468 breast = test system: MDA-MB-468 breast
ACHN renal = test system: ACHN renal
CAKI-1 renal = test system: CAKI-1 renal
A498 renal = test system: A498 renal
SF-295 CNS = test system: SF-295 CNS
KM12 colon = test system: KM12 colon
UO-31 renal = test system: UO-31 renal
RXF 393 renal = test system: RXF 393 renal
MOLT-4 leukemia = test system: MOLT-4 leukemia
HOP-62 NSCLC = test system: HOP-62 NSCLC
PC-3 prostate = test system: PC-3 prostate

CC(C)(C)c1cc(NC(=O)Nc2ccc(-c3cn4c(n3)sc3cc(OCCN5CCOCC5)ccc34)cc2)no1
GI50 (OVCAR-5 ovarian): > 100 µM
TGI (OVCAR-5 ovarian): > 100 µM
GI50 (MCF7 breast): 1.04 µM
TGI (MCF7 breast): > 100 µM
GI50 (SF-539 CNS): 1.08 µM
TGI (SF-539 CNS): 3.17 µM
GI50 (NCI-H226 lung): 3.82 µM
TGI (NCI-H226 lung): > 100 µM
GI50 (UACC-257 melanoma): 4.09 µM
TGI (UACC-257 melanoma): > 100 µM
GI50 (HS 578T breast): 0.461 µM
TGI (HS 578T breast): 3.74 µM
GI50 (IGROV1 ovarian): 4.98 µM
TGI (IGROV1 ovarian): > 100 µM
GI50 (HL-60(TB) leukemia): > 100 µM
TGI (HL-60(TB) leukemia): > 100 µM
GI50 (OVCAR-3 ovarian): 3.03 µM
TGI (OVCAR-3 ovarian): > 100 µM
GI50 (MALME-3M melanoma): 1.89 µM
TGI (MALME-3M melanoma): > 100 µM
GI50 (A549 NSCLC): 4.97 µM
TGI (A549 NSCLC): > 100 µM
GI50 (MDA-MB-435 melanoma): > 100 µM
TGI (MDA-MB-435 melanoma): > 100 µM
GI50 (HCC-2998 colon): > 100 µM
TGI (HCC-2998 colon): > 100 µM
GI50 (NCI/ADR-RES ovarian): > 100 µM
TGI (NCI/ADR-RES ovarian): > 100 µM
GI50 (SK-OV-3 ovarian): 1.67 µM
TGI (SK-OV-3 ovarian): > 100 µM
GI50 (SW-620 colon): > 100 µM
TGI (SW-620 colon): > 100 µM
GI50 (SNB-75 CNS): 1.41 µM
TGI (SNB-75 CNS): 4.7 µM
GI50 (NCI-H322M lung): 2.99 µM
TGI (NCI-H322M lung): > 100 µM
GI50 (DU-145 prostate): > 100 µM
TGI (DU-145 prostate): > 100 µM
GI50 (T-47D breast): 0.094 µM
TGI (T-47D breast): 0.45 µM
GI50 (LOX IMVI melanoma): 2.38 µM
TGI (LOX IMVI melanoma): > 100 µM
GI50 (COLO 205 colon): > 100 µM
TGI (COLO 205 colon): > 100 µM
GI50 (SNB-19 CNS): 3.37 µM
TGI (SNB-19 CNS): > 100 µM
GI50 (HCT-15 colon): 4.54 µM
TGI (HCT-15 colon): > 100 µM
GI50 (SF-268 CNS): 0.584 µM
TGI (SF-268 CNS): 2.55 µM
GI50 (SK-MEL-28 melanoma): 12.4 µM
TGI (SK-MEL-28 melanoma): > 100 µM
GI50 (NCI-H23 lung): 0.684 µM
TGI (NCI-H23 lung): > 100 µM
GI50 (CCRF-CEM leukemia): 0.459 µM
TGI (CCRF-CEM leukemia): > 100 µM
GI50 (MDA-MB-468 breast): 3.17 µM
TGI (MDA-MB-468 breast): 8.59 µM
GI50 (ACHN renal): 7.13 µM
TGI (ACHN renal): > 100 µM
GI50 (CAKI-1 renal): 3.68 µM
TGI (CAKI-1 renal): > 100 µM
GI50 (A498 renal): 2.11 µM
TGI (A498 renal): 6.48 µM
GI50 (SF-295 CNS): 1.12 µM
TGI (SF-295 CNS): > 100 µM
GI50 (KM12 colon): 0.559 µM
TGI (KM12 colon): > 100 µM
GI50 (UO-31 renal): > 100 µM
TGI (UO-31 renal): > 100 µM
GI50 (RXF 393 renal): 0.184 µM
TGI (RXF 393 renal): 0.571 µM
GI50 (MOLT-4 leukemia): 0.412 µM
TGI (MOLT-4 leukemia): > 100 µM
GI50 (HOP-62 NSCLC): 1.27 µM
TGI (HOP-62 NSCLC): 3.54 µM
GI50 (PC-3 prostate): 1.63 µM
TGI (PC-3 prostate): > 100 µM

From PubChem BioAssay (NCI)
